The values that follow come from patent US11779582B2, “Composition for preventing or treating metastatic ovarian cancer, endometrial cancer or breast cancer” (LEMONEX INC., priority 2017, dated 2023).

Series [1] deals with monolayer cultured SKOV3ip1 ovarian cancer cells. The series can be described thus: crystal violet cell viability, 2D monolayer culture. The series is classed as cell-based. On the procedure: 2D monolayer culture was implemented in the following manner: cells were cultured at 37° C., 5% CO2 humidified atmosphere using RPMI 1640 medium (Corning, NY, USA) supplemented with 10% fetal bovine serum (Gibco, NY, USA) and 10 U/ml penicillin/streptomycin.
Crystal violet staining was implemented to determine the cell viability in the monolayer cultured cell model and sphere cultured cell model. In order to implement the crystal violet staining in the monolayer culture model, SKOV3ip1 cells (5×10^4) were dispensed in commercial 24-well plates and incubated overnight. Thereafter, the drug was dispensed with a desired concentration for experiment into each well, followed by further incubation for 72 hours. 300 μl of 0.2% crystal violet solution was added to each well, followed by further incubation for 20 minutes while gently stirring the same. The stained cells were washed with distilled water until a clean background is observed. For assessment using a colorimeter, the crystal violet dye was extracted with 1% SDS/PBS and absorbance was measured at 570 nm wavelength by EMax PLUS microplate reader (Molecular Device, USA).
The monolayer cultured or sphere cultured SKOV3ip1 cells were treated with the tyrosine kinase inhibitor and paclitaxel for 72 hours, the cell viability was determined by the crystal violet colorimeter, and results thereof are shown in FIG. 3.

The subject of series [2] is cleaved PARP in SKOV3-TR ovarian cancer cells. The series can be described thus: cleaved PARP immunostaining. The class given is cell-based. The following applies: BGJ398 in combination with paclitaxel (FIGS. 24 and 25). The text has this: In order to identify whether a change in signaling pathways associated with cell survival appears or not according to 2D monolayer culture (2D MC) and 3D sphere culture (3D SC), immunostaining was implemented. More particularly, after culturing SKOV3ip1 cells (1×10^6) by 2D monolayer culture or 3D sphere culture described in section 1.1, expression of cell-signaling molecules including AKT, STAT3, p42/44 ERK and p38 MAPK was detected and activation states in the monolayer cultured cells and the sphere cultured cells were compared. […] An immune activation band was detected with SuperSignal West Pico Chemiluminescent Substrate (Thermo, IL, USA) using a Fusion Solo chemiluminescence analyzer (Vilber Rourmat Marne la Vallee, France). […]
FIGS. 24 and 25 illustrate expression of cleaved PARP and actin upon administration of paclitaxel alone, BGJ398 alone or in combination with paclitaxel to SKOV3-TR ovarian cancer cells, which was determined by the immunostaining method described above.

SMILES strings stand for the structures.

As to `CCN1CCN(c2ccc(Nc3cc(N(C)C(=O)Nc4c(Cl)c(OC)cc(OC)c4Cl)ncn3)cc2)CC1` [BGJ398, 3-(2,6-dichloro-3,5-dimethoxyphenyl)-1-[6-[4-(4-ethylpiperazin-1yl)anilino]pyrimidin-4-yl]-1-methylurea], the cell viability result in series [1] (monolayer cultured SKOV3ip1, 72 hours, different concentrations, crystal violet colorimeter (FIG. 3)) is reported as “not effected”. For the same compound, the cytotoxicity result in series [1] (monolayer cultured SKOV3ip1, BGJ398 concentration increased to 5 μM) is given as “cytotoxicity was not revealed”. Moreover, in series [2], the “expression of cleaved PARP and actin” value was “increased in concentration- and time-dependent manners”.
